PubChem BioAssay (NCI)
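96-well plates; 48 h exposure; 5 concentrations. Endpoints by linear interpolation between flanking doses. Not reached: highest tested concentration assigned. Here, GI50 denotes the concentration required for 50% inhibition of growth. The concentration for full growth arrest is given as TGI.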

What was measured:
Assay in all cases: NCI tumour cell line growth inhibition, 48 h
[1] = system: NCI-H23 lung
[2] = system: NCI-H460 lung
[3] = system: NCI-H522 lung
[4] = system: NCI/ADR-RES ovarian
[5] = system: OVCAR-3 ovarian
[6] = system: OVCAR-4 ovarian
[7] = system: OVCAR-5 ovarian
[8] = system: OVCAR-8 ovarian
[9] = system: PC-3 prostate
[10] = system: RPMI-8226 leukemia
[11] = system: SF-268 CNS
[12] = system: SF-295 CNS
[13] = system: SF-539 CNS
[14] = system: SK-MEL-2 melanoma
[15] = system: SK-MEL-28 melanoma
[16] = system: SK-MEL-5 melanoma
[17] = system: SK-OV-3 ovarian
[18] = system: SN12C renal
[19] = system: SNB-19 CNS
[20] = system: SNB-75 CNS
[21] = system: SR leukemia
[22] = system: SW-620 colon
[23] = system: T-47D breast
[24] = system: TK-10 renal
[25] = system: U251 CNS
[26] = system: UACC-62 melanoma

CCOC(=O)c1c2c(n(Cc3ccc(Cl)cc3Cl)c1C)-c1nc(Cc3ccccc3)[nH]c1C(=O)C2=O
GI50 [1]: 2.03 µM | TGI [1]: 4.29 µM | GI50 [2]: 2.27 µM | TGI [2]: 4.9 µM | GI50 [3]: 2.2 µM | TGI [3]: 4.68 µM | GI50 [4]: 3.19 µM | TGI [4]: 10.6 µM | GI50 [5]: 1.8 µM | TGI [5]: 3.6 µM | GI50 [6]: 1.87 µM | TGI [6]: 4.8 µM | GI50 [7]: 2.25 µM | TGI [7]: 4.56 µM | GI50 [8]: 3.49 µM | TGI [8]: 50.4 µM | GI50 [9]: 1.92 µM | TGI [9]: 4.9 µM | GI50 [10]: 2.25 µM | TGI [10]: 4.65 µM | GI50 [11]: 1.94 µM | TGI [11]: 4.28 µM | GI50 [12]: 1.99 µM | TGI [12]: 4.59 µM | GI50 [13]: 2.14 µM | TGI [13]: 3.97 µM | GI50 [14]: 2.83 µM | TGI [14]: 9.2 µM | GI50 [15]: 1.69 µM | TGI [15]: 3.3 µM | GI50 [16]: 1.8 µM | TGI [16]: 3.27 µM | GI50 [17]: 5.02 µM | TGI [17]: 19.3 µM | GI50 [18]: 2.22 µM | TGI [18]: 4.75 µM | GI50 [19]: 3.51 µM | TGI [19]: 45.2 µM | GI50 [20]: 1.88 µM | TGI [20]: 3.63 µM | GI50 [21]: 1.78 µM | TGI [21]: 3.82 µM | GI50 [22]: 2.11 µM | TGI [22]: 4.07 µM | GI50 [23]: 2.65 µM | TGI [23]: 33.3 µM | GI50 [24]: 2.12 µM | TGI [24]: 3.65 µM | GI50 [25]: 2.11 µM | TGI [25]: 4.62 µM | GI50 [26]: 1.82 µM | TGI [26]: 3.48 µM
